This is an account of results in patent US12350403B2, “Methods of making therapeutic polymeric material” (priority 2015, dated 2025).

The conditions of series [1]: cited from earlier work.
The conditions of series [2]: value used for minimum release rate; cited from earlier work.
Series [3] has as its system Xen 29. The series can be described thus: Minimum inhibitory concentration against Xen 29. It counts as cell-based, S. aureus. The settings on record: Staphylococcus aureus, 29, read-out: Minimum inhibitory concentration of rifampin against Xen 29.
Series [4] has as its system Xen 29. The conditions noted are these: cited from earlier work.
The nature of series [5]: UV-Vis spectra of vancomycin eluted from unirradiated and irradiated blend. The class given is physicochemical. The conditions noted are these: blended in the polymeric material, with and without terminal irradiation. The protocol:
Vancomycin HCl-blended UHMWPE was prepared with a concentration of 6 wt % vancomycin as described in Example 3. Consolidation was performed at 170° C. for 10 min at 20 MPa. The platens were then cooled down with air down to approximately 162° C. and then cooled down with water starting at approximately 156° C. down to about room temperature to obtain an approximately 3 mm-thick puck (approximately 10.5 mm diameter). Consolidated vancomycin-blended samples (VPE) were then either used as is or gamma irradiated at 100 kGy. UHMWPE without additives was used as control. In vitro elution of samples in all three groups was conducted in phosphate buffered saline (PBS) as described in Example 3. After no detectable vancomycin could be measured through UV-Vis, the presence of vancomycin grafted onto the surface of the polymer was determined by labeling with an anti-vancomycin antibody.

For series [6] the following is noted: human hip, assumed; cited from earlier work.

Converted amounts (≈) assume the structure as drawn.

With `Cc1nnc(SCC2=C(C(=O)O)N3C(=O)[C@@H](NC(=O)Cn4cnnn4)[C@H]3SC2)s1` [cefazolin], the “share of intravenous antibiotic that penetrates bone” value (“share” for short) in series [1] is 7-15%.
Consider `CO/N=C(\C(=O)N[C@@H]1C(=O)N2C(C(=O)O)=C(CSc3nc(=O)c(=O)[nH]n3C)CS[C@H]12)c1csc(N)n1` [ceftriaxone], for which, in series [1], the “share” value was 5-19%.
With `CO[C@H]1/C=C/O[C@@]2(C)Oc3c(C)c(O)c4c(O)c(c(/C=N/N5CCN(C)CC5)c(O)c4c3C2=O)NC(=O)/C(C)=C\C=C\[C@H](C)[C@H](O)[C@@H](C)[C@@H](O)[C@@H](C)[C@H](OC(C)=O)[C@@H]1C` [rifampin], in series [2], the minimum inhibitory concentration was 1 µg/mL (≈ 1.22 µM). Also, the MIC with Xen 29 [3] came to 0.01 µg/mL (≈ 0.0122 µM).
Regarding `CN[C@H](CC(C)C)C(=O)N[C@H]1C(=O)N[C@@H](CC(N)=O)C(=O)N[C@H]2C(=O)N[C@H]3C(=O)N[C@H](C(=O)N[C@H](C(=O)O)c4cc(O)cc(O)c4-c4cc3ccc4O)[C@H](O)c3ccc(c(Cl)c3)Oc3cc2cc(c3O[C@@H]2O[C@H](CO)[C@@H](O)[C@H](O)[C@H]2O[C@H]2C[C@](C)(N)[C@H](O)[C@H](C)O2)Oc2ccc(cc2Cl)[C@H]1O` [vancomycin], the “share” value in series [1] is 5-20%. In addition, the “Minimum inhibitory concentration of vancomycin against Xen 29” value in the series with Xen 29 [4] is 1 µg/mL. Moreover, the “effect of irradiation on vancomycin (UV absorbance of eluted vancomycin)” value in series [5] is recorded as “not affected by irradiation”. The minimum inhibitory concentration in series [2] was 2 µg/mL (≈ 1.38 µM). Moreover, the “approximate clearance half-life from the joint space” value in series [6] was ~3.5 h.
